According to ChEMBL document CHEMBL5528047, “A Potent SOS1 PROTAC Degrader with Synergistic Efficacy in Combination with KRASG12C Inhibitor” (J Med Chem, 2024):
The source made the active and inactive calls. No cut-off for these calls is given here.

What was measured:
[1] = molecular target: T1, von Hippel-Lindau disease tumor suppressor/Son of sevenless homolog 1 (Homo sapiens, UniProt Q07889+P40337); assay: Protac activity at VHL/SOS1 in human PANC-1 cells assessed as SOS1 degradation at 10 uM by Western blotting analysis relative to control; format: cell-based
Target sequence in this assay (P40337 whole entry, looked up): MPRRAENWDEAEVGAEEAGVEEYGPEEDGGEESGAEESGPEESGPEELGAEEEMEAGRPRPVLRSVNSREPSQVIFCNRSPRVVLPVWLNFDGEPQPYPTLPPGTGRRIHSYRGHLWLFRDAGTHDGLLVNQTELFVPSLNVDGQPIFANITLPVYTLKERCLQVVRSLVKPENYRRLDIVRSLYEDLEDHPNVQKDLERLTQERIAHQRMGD
Target sequence in this assay (Q07889 whole entry, looked up): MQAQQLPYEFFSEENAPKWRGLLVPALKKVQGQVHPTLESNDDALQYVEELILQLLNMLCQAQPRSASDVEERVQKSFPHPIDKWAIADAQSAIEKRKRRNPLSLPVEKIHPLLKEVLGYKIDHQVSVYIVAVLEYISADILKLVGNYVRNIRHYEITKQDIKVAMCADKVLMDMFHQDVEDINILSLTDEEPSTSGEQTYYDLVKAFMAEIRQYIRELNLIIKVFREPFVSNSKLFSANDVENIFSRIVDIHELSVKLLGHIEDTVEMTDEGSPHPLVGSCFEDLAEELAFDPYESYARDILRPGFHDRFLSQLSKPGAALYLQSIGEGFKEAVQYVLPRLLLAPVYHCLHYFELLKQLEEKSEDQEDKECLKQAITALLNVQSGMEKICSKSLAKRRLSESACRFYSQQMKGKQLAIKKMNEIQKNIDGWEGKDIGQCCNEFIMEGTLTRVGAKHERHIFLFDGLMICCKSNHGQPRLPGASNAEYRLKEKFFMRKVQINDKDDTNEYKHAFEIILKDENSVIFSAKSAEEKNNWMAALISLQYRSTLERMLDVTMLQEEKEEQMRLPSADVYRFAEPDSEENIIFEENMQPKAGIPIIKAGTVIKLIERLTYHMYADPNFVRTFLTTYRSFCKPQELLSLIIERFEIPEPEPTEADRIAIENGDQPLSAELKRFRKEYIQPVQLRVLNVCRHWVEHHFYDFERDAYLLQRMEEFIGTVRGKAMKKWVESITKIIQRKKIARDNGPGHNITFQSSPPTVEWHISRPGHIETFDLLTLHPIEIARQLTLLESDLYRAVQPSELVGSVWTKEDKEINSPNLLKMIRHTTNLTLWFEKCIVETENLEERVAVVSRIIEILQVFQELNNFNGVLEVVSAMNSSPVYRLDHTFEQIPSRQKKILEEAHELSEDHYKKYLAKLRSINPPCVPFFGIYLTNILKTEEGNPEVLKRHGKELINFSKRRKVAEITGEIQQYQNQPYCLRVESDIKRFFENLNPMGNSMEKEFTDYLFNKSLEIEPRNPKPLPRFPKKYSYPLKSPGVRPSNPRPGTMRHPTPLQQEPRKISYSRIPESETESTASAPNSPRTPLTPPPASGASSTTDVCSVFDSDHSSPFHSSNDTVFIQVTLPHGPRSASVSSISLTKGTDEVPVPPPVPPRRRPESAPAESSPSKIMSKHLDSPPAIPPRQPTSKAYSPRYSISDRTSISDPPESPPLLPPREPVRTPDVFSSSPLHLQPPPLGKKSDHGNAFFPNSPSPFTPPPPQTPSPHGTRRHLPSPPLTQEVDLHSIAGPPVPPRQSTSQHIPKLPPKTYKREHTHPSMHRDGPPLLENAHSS

[2] = molecular target: T1, von Hippel-Lindau disease tumor suppressor/Son of sevenless homolog 1; assay: Protac activity at VHL/SOS1 in human K562 cells assessed as SOS1 degradation at 1 uM by Western blotting analysis relative to control; format: cell-based
Target sequence in this assay (P40337 whole entry, looked up): as the sequence (P40337 whole entry, looked up) above
Target sequence in this assay (Q07889 whole entry, looked up): as the sequence (Q07889 whole entry, looked up) above

[3] = molecular target: T1, von Hippel-Lindau disease tumor suppressor/Son of sevenless homolog 1; assay: Protac activity at VHL/SOS1 in human K562 cells assessed as SOS1 degradation at 10 uM by Western blotting analysis relative to control; format: cell-based
Target sequence in this assay (P40337 whole entry, looked up): as the sequence (P40337 whole entry, looked up) above
Target sequence in this assay (Q07889 whole entry, looked up): as the sequence (Q07889 whole entry, looked up) above

[4] = molecular target: T1, von Hippel-Lindau disease tumor suppressor/Son of sevenless homolog 1; assay: Protac activity at VHL/SOS1 in human K562 cells assessed as SOS1 degradation incubated for 24 hrs by Western blotting analysis; format: cell-based
[5] = molecular target: T1, von Hippel-Lindau disease tumor suppressor/Son of sevenless homolog 1; assay: Protac activity at VHL/SOS1 in human NCI-H358 cells assessed as SOS1 degradation incubated for 24 hrs by Western blotting analysis; format: cell-based
[6] = molecular target: T1, von Hippel-Lindau disease tumor suppressor/Son of sevenless homolog 1; assay: Protac activity at VHL/SOS1 in human K562 cells assessed as maximum SOS1 degradation at 0.003 to 10 uM incubated for 24 hrs by Western blotting analysis; format: cell-based; conditions: dose 0.003-10 µM
Target sequence in this assay (P40337 whole entry, looked up): as the sequence (P40337 whole entry, looked up) above
Target sequence in this assay (Q07889 whole entry, looked up): as the sequence (Q07889 whole entry, looked up) above

[7] = molecular target: T1, von Hippel-Lindau disease tumor suppressor/Son of sevenless homolog 1; assay: Protac activity at VHL/SOS1 in human PANC-1 cells assessed as maximum SOS1 degradation at 0.003 to 10 uM incubated for 24 hrs by Western blotting analysis; format: cell-based; conditions: dose 0.003-10 µM
Target sequence in this assay (P40337 whole entry, looked up): as the sequence (P40337 whole entry, looked up) above
Target sequence in this assay (Q07889 whole entry, looked up): as the sequence (Q07889 whole entry, looked up) above

[8] = molecular target: T1, von Hippel-Lindau disease tumor suppressor/Son of sevenless homolog 1; assay: Protac activity at VHL/SOS1 in human PANC-1 cells assessed as SOS1 degradation at 1 uM incubated for 96 hrs by Western blotting analysis; format: cell-based
Target sequence in this assay (P40337 whole entry, looked up): as the sequence (P40337 whole entry, looked up) above
Target sequence in this assay (Q07889 whole entry, looked up): as the sequence (Q07889 whole entry, looked up) above

[9] = molecular target: T1, von Hippel-Lindau disease tumor suppressor/Son of sevenless homolog 1; assay: Protac activity at VHL/SOS1 in human MIA PaCa-2 cells assessed as SOS1 degradation at 1 uM preincubated with MG132 for 2 hrs followed by compound addition and measured after 3 hrs by Western blotting analysis; format: cell-based
[10] = molecular target: T1, von Hippel-Lindau disease tumor suppressor/Son of sevenless homolog 1; assay: Protac activity at VHL/SOS1 in human MIA PaCa-2 cells assessed as SOS1 degradation at 1 uM preincubated with MLN4924 for 2 hrs followed by compound addition and measured after 3 hrs by Western blotting analysis; format: cell-based
[11] = molecular target: T1, von Hippel-Lindau disease tumor suppressor/Son of sevenless homolog 1; assay: Protac activity at VHL/SOS1 in human MIA PaCa-2 cells assessed as SOS1 degradation at 1 uM preincubated with VHL ligand V1 for 2 hrs followed by compound addition and measured after 3 hrs by Western blotting analysis; format: cell-based
[12] = molecular target: T1, von Hippel-Lindau disease tumor suppressor/Son of sevenless homolog 1; assay: Protac activity at VHL/SOS1 in human MIA PaCa-2 cells assessed as SOS1 degradation at 1 uM preincubated with BI3406 for 2 hrs followed by compound addition and measured after 3 hrs by Western blotting analysis; format: cell-based
[13] = molecular target: T1, von Hippel-Lindau disease tumor suppressor/Son of sevenless homolog 1; assay: Protac activity at VHL/SOS1 in human K562 cells assessed as SOS1 degradation at 1 uM preincubated with VHL ligand V1 for 2 hrs followed by compound addition and measured after 2 hrs by Western blotting analysis; format: cell-based
[14] = molecular target: T1, von Hippel-Lindau disease tumor suppressor/Son of sevenless homolog 1; assay: Protac activity at VHL/SOS1 in human K562 cells assessed as SOS1 degradation at 1 uM preincubated with BI3406 for 2 hrs followed by compound addition and measured after 2 hrs by Western blotting analysis; format: cell-based
K562 [15] = assay: Downregulation of phosphorylated-ERK level in human K562 cells at 0.3 to 3 uM incubated for 24 hrs by Western blotting analysis; format: functional, cell-based; conditions: dose 0.3-3 µM
K562 [16] = assay: Effect on total ERK level in human K562 cells at 0.3 to 3 uM incubated for 24 hrs by Western blotting analysis; format: functional, cell-based; conditions: dose 0.3-3 µM
K562 [17] = assay: Antiproliferative activity against human K562 cells incubated for 72 hrs by CCK8 assay; format: functional, cell-based; conditions: K562, 72 h
MIA PaCa-2 [18] = assay: Antiproliferative activity against human MIA PaCa-2 cells incubated for 72 hrs by CCK8 assay; format: functional, cell-based; conditions: MIA PaCa-2, 72 h
[19] = Half life in ICR mouse at 10 mg/kg, po measured upto 24 hrs by LC-MS/MS analysis; format: ADME, organism-based; conditions: in vivo
[20] = AUC(0 to t) in ICR mouse at 10 mg/kg, po measured upto 24 hrs by LC-MS/MS analysis; format: ADME, organism-based; conditions: in vivo
[21] = AUC(0 to infinity) in ICR mouse at 10 mg/kg, po measured upto 24 hrs by LC-MS/MS analysis; format: ADME, organism-based; conditions: in vivo
K562 [22] = assay: Antitumor activity against human K562 cells xenografted in NOD-SCID mouse assessed as tumor growth inhibition at 5 mg/kg, ip administered as 5 days on and 2 days off schedule for 21 days; format: functional; conditions: K562, 120 h, time 5 day, read-out: TGI
K562 [23] = assay: Antitumor activity against human K562 cells xenografted in NOD-SCID mouse assessed as tumor growth inhibition at 25 mg/kg, ip administered as 5 days on and 2 days off schedule for 21 days; format: functional; conditions: K562, 120 h, time 5 day, read-out: TGI
[24] = Toxicity in NOD-SCID mouse assessed as body weight loss at 5 to 25 mg/kg, ip administered as 5 days on and 2 days off schedule for 21 days; format: organism-based; conditions: in vivo, 120 h, dose 5-25 mg/kg, time 5 day
Mus musculus = assay: In vivo induction of SOS1 degradation in human K562 cells xenografted in NOD-SCID mouse assessed as reduction in SOS1 level at 25 mg/kg, ip measured after 24 hrs by immunoblotting analysis; format: functional, organism-based
NCI-H358 [25] = assay: Inhibition of ERK phosphorylation in human NCI-H358 cells at 1 uM measured after 24 to 72 hrs in presence of AMG510 by Western blotting analysis; format: cell-based; conditions: time 24-72 hrs
MIA PaCa-2 [26] = assay: Inhibition of ERK phosphorylation in human MIA PaCa-2 cells at 1 uM measured after 24 to 72 hrs in presence of AMG510 by Western blotting analysis; format: cell-based; conditions: time 24-72 hrs
SW837 [27] = assay: Inhibition of ERK phosphorylation in human SW837 cells at 1 uM measured after 24 to 72 hrs in presence of AMG510 by Western blotting analysis; format: cell-based; conditions: time 24-72 hrs
SW837 [28] = assay: Antiproliferative activity against human SW837 cells incubated for 6 days by CCK8 assay; format: functional, cell-based; conditions: SW837, 144 h
NCI-H358 [29] = assay: Synergistic antiproliferative activity against human NCI-H358 cells assessed as combination index incubated for 5 days in presence of 4-((S)-4-acryloyl-2-methylpiperazin-1-yl)-6-fluoro-7-(2-fluoro-6-hydroxyphenyl)-1-(2-isopropyl-4-methylpyridin-3-yl)pyrido[2,3-d]pyrimidin-2(1H)-one; format: functional; conditions: time 5 day
NCI-H358 [30] = assay: Antitumor activity against human NCI-H358 cells xenografted in BALB/c mouse assessed as tumor growth inhibition at 30 mg/kg, ip administered once daily for 28 days; format: functional; conditions: NCI-H358, 672 h, time 28 day, read-out: TGI
NCI-H358 [31] = assay: Antitumor activity against human NCI-H358 cells xenografted in BALB/c mouse assessed as tumor growth inhibition at 30 mg/kg, ip administered once daily for 28 days in presence of 10 mg/kg 4-((S)-4-acryloyl-2-methylpiperazin-1-yl)-6-fluoro-7-(2-fluoro-6-hydroxyphenyl)-1-(2-isopropyl-4-methylpyridin-3-yl)pyrido[2,3-d]pyrimidin-2(1H)-one; format: functional; conditions: NCI-H358, 672 h, time 28 day, read-out: TGI
[32] = Toxicity in BALB/c mouse xenografted with human NCI-H358 cells assessed as body weight loss at 30 mg/kg, ip administered once daily for 28 days in presence of 10 mg/kg 4-((S)-4-acryloyl-2-methylpiperazin-1-yl)-6-fluoro-7-(2-fluoro-6-hydroxyphenyl)-1-(2-isopropyl-4-methylpyridin-3-yl)pyrido[2,3-d]pyrimidin-2(1H)-one; format: organism-based; conditions: in vivo, 672 h, time 28 day

COc1cc2nc(C)nc(N[C@H](C)c3cc(N)cc(C(F)(F)F)c3)c2cc1OCCCCC(=O)N[C@H](C(=O)N1C[C@H](O)C[C@H]1C(=O)NCc1ccc(-c2scnc2C)cc1)C(C)(C)C
Activity [1]: 93.9% | Activity [2]: 89.8% | Activity [3]: 93.3% | Activity [4]: Dose-Dependent Effect | DC50 [4]: 130 nM | Activity [5]: Dose-Dependent Effect | DC50 [5]: 50 nM | Emax [6]: > 90% | Emax [7]: > 90% | Activity [8]: Active | Activity [9]: inactive | Activity [10]: inactive | Activity [11]: inactive | Activity [12]: inactive | Activity [13]: inactive | Activity [14]: inactive | Activity (K562 [15]): Active | Activity (K562 [16]): inactive | IC50 (K562 [17]): 535 nM | IC50 (MIA PaCa-2 [18]): 98 nM | half-life [19]: 4.19 h | AUC(0-t) at 24 h [20]: 4260 ng·h/mL | AUC(0-inf) [21]: 4280 ng·h/mL | inhibition in vivo at 5 mg/kg (K562 [22]): 56.3% | inhibition in vivo at 25 mg/kg (K562 [23]): 72.3% | Activity [24]: Non-Toxic | Activity (Mus musculus): Active | inhibition (NCI-H358 [25]): Active | inhibition (MIA PaCa-2 [26]): Active | inhibition (SW837 [27]): Active | IC50 (SW837 [28]): 1040 nM | CI (NCI-H358 [29]): <1 | inhibition in vivo at 30 mg/kg (NCI-H358 [30]): 11.4% | inhibition in vivo at 30 mg/kg (NCI-H358 [31]): 78.8% | Activity [32]: Non-Toxic
